In one data set the test system is E. faec. DSM-17050 (VRE). As to the kind of experiment: MIC assay. Type of data set: cell-based, Enterococcus faecium. The note with it: Enterococcus; read-out: MIC E. faec. DSM-17050 (VRE). As to the method: (§1) All cystobactamids were evaluated in MIC-assays on a panel of representative ESKAPE strains with focus on A. baumannii (Tables 1 and 2). Compared to our previous work[10],[17],[18], we specifically included more challenging test strains with known resistances against gyrase inhibitors.
(§2) 2.1 Materials and Methods
(§3) Strains were cultivated according to standard procedures. Bacterial cryo-cultures were
(§4) resuspended into fresh MHBII (cation adjusted) medium. The resuspension
(§5) assay plate (Corning, #3788).
(§6) in parallel as a positive control. […]

The test system of another data set is ESKAPE strains. Put plainly: MIC-assays on a panel of representative ESKAPE strains, summary in words. It is filed as cell-based. Conditions: summary of the MIC tables. As to the method: as §1, §2, §3, §4, §5, §6
A further data set relates to P. ae. PA14. As to the kind of experiment: MIC assay. It is filed as cell-based. Conditions: Pseudomonas aeruginosa, PA14; reference strain; read-out: MIC P. ae. PA14. The protocol:
as §1, §2, §3, §4, §5, §6

A further data set relates to E. coli LM705. As to the kind of experiment: MIC assay. It is filed as cell-based. Conditions: Escherichia coli, LM705, read-out: MIC E. coli LM705. As to the method:
as §1, §2, §3, §4, §5, §6

The next data set concerns P. ae. PA14ΔmexAB. Put plainly: MIC assay. It is filed as cell-based. The note with it: Pseudomonas aeruginosa, read-out: MIC P. ae. PA14ΔmexAB. As to the method: as §1, §2, §3, §4, §5, §6
In the next data set the test system is S. aur. ATCC-29213. Put plainly: MIC assay. Type of data set: cell-based. The note with it: Staphylococcus aureus, ATCC29213; reference strain; read-out: MIC S. aur. ATCC-29213. As to the method: as §1, §2, §3, §4, §5, §6
In another data set the test system is K. pneum. R-1525. Put plainly: MIC assay. Type of data set: cell-based. Conditions: Klebsiella pneumoniae; read-out: MIC K. pneum. R-1525. The protocol:
as §1, §2, §3, §4, §5, §6

In the next data set the test system is A. baum. R835. Put plainly: MIC assay. It is filed as cell-based. The note with it: Acinetobacter baumannii; read-out: MIC A. baum. R835. The protocol: as §1, §2, §3, §4, §5, §6
The test system of a further data set is A. baum. DSM-30008. As to the kind of experiment: MIC assay. Type of data set: cell-based. Conditions: Acinetobacter baumannii, DSM30008; reference strain; read-out: MIC A. baum. DSM-30008. As to the method:
as §1, §2, §3, §4, §5, §6

A further data set concerns K. pneum. CIP-104298. Put plainly: MIC assay. Type of data set: cell-based. The note with it: Klebsiella pneumoniae, CIP104298; reference strain; read-out: MIC K. pneum. CIP-104298. As to the method: as §1, §2, §3, §4, §5, §6
The test system of data set [1] is S. pneum. DSM-11865 (PRSP). Put plainly: MIC assay. Conditions: Streptococcus pneumoniae; read-out: MIC S. pneum. DSM-11865 (PRSP). It is filed as cell-based. The protocol: as §1, §2, §3, §4, §5, §6
A further data set deals with E. cloacae ATCC BAA-2468. As to the kind of experiment: MIC assay. It is filed as cell-based. Conditions: Enterobacter cloacae, ATCCBAA2468; read-out: MIC E. cloacae ATCC BAA-2468. The protocol: as §1, §2, §3, §4, §5, §6
In another data set the test system is E. coli ATCC-25922. As to the kind of experiment: MIC assay. It is filed as cell-based. Conditions: Escherichia coli, ATCC25922; reference strain; read-out: MIC E. coli ATCC-25922. As to the method: as §1, §2, §3, §4, §5, §6
For the next data set, the system named is A. baum. CIP-105742. Put plainly: MIC assay. Type of data set: cell-based. The note with it: Acinetobacter baumannii, CIP105742; read-out: MIC A. baum. CIP-105742. As to the method: as §1, §2, §3, §4, §5, §6
In a further data set the test system is K. pneum. KP10581. As to the kind of experiment: MIC assay. Type of data set: cell-based. The note with it: Klebsiella pneumoniae; read-out: MIC K. pneum. KP10581. The protocol:
as §1, §2, §3, §4, §5, §6

For a further data set, the system named is A. baum. ATCC BAA-1710. Put plainly: MIC assay. It is filed as cell-based. Conditions: Acinetobacter baumannii, ATCCBAA1710; read-out: MIC A. baum. ATCC BAA-1710. The protocol:
as §1, §2, §3, §4, §5, §6

The next data set has as its system A. baum. CIP-107292. As to the kind of experiment: MIC assay. Type of data set: cell-based. The note with it: Acinetobacter baumannii, CIP107292; read-out: MIC A. baum. CIP-107292. As to the method: as §1, §2, §3, §4, §5, §6
The test system of another data set is E. ae. CIP 106754. As to the kind of experiment: MIC assay. Type of data set: cell-based, Enterobacter aerogenes. Conditions: Klebsiella aerogenes, CIP106754, read-out: MIC E. ae. CIP 106754. The protocol:
as §1, §2, §3, §4, §5, §6

A short description of data set [2]: metabolic stability assay, mouse microsomes. Conditions: Table S4.
Data set [3] is described as follows: metabolic stability assay, human microsomes. Conditions: second microsome column of Table S4, head prints (M); mouse and human microsomes.
The procedure of data set [4]: 2.1 Materials and Methods […]
Determination of in vitro ADME properties
7, 8, 11 and 42. All samples were analysed via HPLC -MS/MS.
HPLC-MS/MS analysis of cystobactamids
AB Sciex QTrap 6500plus mass spectrometer. LC conditions were as follows: column:
Samples were run under acidic
For plasma stability experiments, samples were procured from commercial sources.
Human plasma was obtained from Antibodies-online (catalog no. ABIN5706569), and mouse plasma was obtained from Tebubio (catalog no. D408-04-0050).
The methods were performed in accordance with relevant guidelines and regulations and approved by the Helmholtz Centre for Infection Research. […]

Values after ≈ are worked out from the molar mass of the structure shown.

What is called MIC is the least concentration at which growth counts as inhibited.

As for `C#CCC(NC(=O)c1ccc(NC(=O)c2ccc(C#N)cc2)cc1)C(=O)Nc1ccc(C(=O)Nc2ccc(C(=O)Nc3ccc(C(=O)O)cc3)c(Cl)c2OC(C)C)cc1` (stereo not drawn) [Cmpd. 5], the MIC in the data set on E. faec. DSM-17050 (VRE), in the data set with P. ae. PA14, in the data set with E. coli LM705, with P. ae. PA14ΔmexAB, in the data set on S. aur. ATCC-29213 and in the data set with K. pneum. R-1525 was more than 64 µg/mL in each case. In addition, the MIC was more than 8 µg/mL with A. baum. R835; more than 8 µg/mL in the data set on A. baum. DSM-30008; more than 64 µg/mL in the data set on K. pneum. CIP-104298; more than 64 µg/mL in data set [1]; more than 64 µg/mL with E. cloacae ATCC BAA-2468; more than 64 µg/mL in the data set on E. coli ATCC-25922. Besides, the MIC with A. baum. CIP-105742 is more than 8 µg/mL; in the data set with K. pneum. KP10581 it was more than 64 µg/mL; with A. baum. ATCC BAA-1710, more than 8 µg/mL; in the data set on A. baum. CIP-107292, more than 8 µg/mL; with E. ae. CIP 106754, more than 64 µg/mL. Besides, in the data set with ESKAPE strains, the “antibacterial activity on the pathogen panel, in words” value (“antibacterial activity” for short) is recorded as “abolished the activity in all tested strains”.
In the case of `C#CC[C@H](NC(=O)c1ccc(NC(=O)c2ccc(C#N)cc2)cc1)C(=O)Nc1ccc(C(=O)Nc2ccc(C(=O)Nc3ccc(C(=O)O)cc3)c(Br)c2OC(C)C)cc1` [Cmpd. 6], the MIC with E. faec. DSM-17050 (VRE), in the data set with P. ae. PA14, in the data set with E. coli LM705, in the data set with P. ae. PA14ΔmexAB, with S. aur. ATCC-29213 and in the data set with K. pneum. R-1525 was more than 64 µg/mL throughout. Besides, the MIC is more than 8 µg/mL in the data set with A. baum. R835; more than 8 µg/mL in the data set with A. baum. DSM-30008; more than 64 µg/mL with K. pneum. CIP-104298; more than 64 µg/mL in data set [1]; more than 64 µg/mL in the data set with E. cloacae ATCC BAA-2468; more than 64 µg/mL in the data set on E. coli ATCC-25922. Also, the MIC in the data set with A. baum. CIP-105742 was more than 8 µg/mL; in the data set with K. pneum. KP10581, more than 64 µg/mL; in the data set on A. baum. ATCC BAA-1710, more than 8 µg/mL; with A. baum. CIP-107292, more than 8 µg/mL; with E. ae. CIP 106754, more than 64 µg/mL. Besides, in the data set with ESKAPE strains, the “antibacterial activity” value is “abolished the activity in all tested strains”.
Take `C#CC[C@H](NC(=O)c1ccc(NC(=O)c2ccc(C#N)cc2)cc1)C(=O)Nc1ccc(C(=O)Nc2ccc(C(=O)Nc3ccc(C(=O)O)cc3)nc2OC(C)C)cc1` [Cmpd. 8]: the “T1/2 MICROSOMES (M)” value in [2] and in [3] was more than 1 h throughout. Besides, the MIC in the data set on E. faec. DSM-17050 (VRE) is 0.25 µg/mL (≈ 0.321 µM); in the data set with E. coli LM705, more than 64 µg/mL; in the data set on S. aur. ATCC-29213, more than 64 µg/mL; in the data set on K. pneum. R-1525, more than 64 µg/mL; in the data set with A. baum. R835, more than 64 µg/mL; with E. cloacae ATCC BAA-2468, more than 64 µg/mL. The MIC in the data set on E. coli ATCC-25922 is not above 0.03 µg/mL; in the data set with K. pneum. KP10581, more than 64 µg/mL; with A. baum. ATCC BAA-1710, more than 64 µg/mL; in the data set on A. baum. CIP-107292, 8 µg/mL (≈ 10.3 µM); in the data set on E. ae. CIP 106754 it was more than 64 µg/mL. Also, the “T1/2 PLASMA (H)” value in data set [4] (human plasma) is more than 4 h. Also, the “T1/2 PLASMA (M)” value in [4] (mouse plasma) is more than 4 h.
For the compound `CO[C@@H](C(N)=O)[C@H](NC(=O)c1ccc(NC(=O)c2ccc(C#N)cc2)cc1)C(=O)Nc1ccc(C(=O)Nc2ccc(C(=O)Nc3ccc(C(=O)O)cc3)c(C(F)F)c2OC(C)C)cc1` [Cmpd. 9], the MIC in the data set with E. faec. DSM-17050 (VRE), in the data set with P. ae. PA14, with E. coli LM705, with P. ae. PA14ΔmexAB, in the data set on S. aur. ATCC-29213 and with K. pneum. R-1525 was more than 64 µg/mL throughout. The minimum inhibitory concentration (MIC) is more than 8 µg/mL with A. baum. R835; more than 8 µg/mL in the data set with A. baum. DSM-30008; more than 64 µg/mL with K. pneum. CIP-104298; more than 64 µg/mL in data set [1]; more than 64 µg/mL in the data set with E. cloacae ATCC BAA-2468; more than 8 µg/mL with E. coli ATCC-25922. The MIC with A. baum. CIP-105742 is more than 8 µg/mL; with K. pneum. KP10581 it was more than 64 µg/mL; with A. baum. ATCC BAA-1710, more than 8 µg/mL; in the data set on A. baum. CIP-107292 it was more than 8 µg/mL; in the data set with E. ae. CIP 106754 it was more than 64 µg/mL. Moreover, the “antibacterial activity” value in the data set on ESKAPE strains was “complete elimination of activity”.
